The nature of assay [1]: Water contact angle method on treated enamel chips. On the set-up: species or system bovine. Here is the method:
A water contact angle method is used to determine the degree of hydrophobicity imparted by the present compositions to tooth surfaces. […] The method uses polished bovine enamel chips that are cleaned using a prophy paste followed by an acetone wipe and water rinse in a sonicator. Chips are then allowed to air dry for 60-90 minutes, and then baseline water contact angles are measured using prop Shape Analysis System DSA 10-MK2 from KRUSS. Chips with baseline water contact angle of about 48.00±5.00 are selected and randomized into groups of three per treatment. Following randomization each group of three chips are treated with a solution or dentifrice slurry (1:3 ratio) containing the test ingredient followed by a water rinse. The chips are then soaked in human saliva for an hour at 37° C. After the saliva soak, the chips are removed, rinsed with water and air dried. Contact angle reading is taken after at least 2 hours of drying. Water or regular toothpaste (without organophosphate) are used as controls. […] An increase in contact angle (post-treatment value—baseline) represents increased hydrophobic character of the surface; a decrease represents increased hydrophilic character of the surface.

Assay [2] is described as follows: In vitro erosion cycling protocol (citric acid challenge, TMR). On the set-up: species or system human. The conditions noted are these: teeth treated with compositions containing the organophosphate.
The nature of assay [3]: Dissolution of pretreated hydroxy apatite powder in acetate buffer pH 4.5. How it is done:
In this protocol, HAP powder is pretreated with dentifrice slurry supernatant (20 g supernate/200 mg HAP powder) followed by three times washing with water. After the last wash, 2 ml of water is added and vortexed to form a uniform slurry. In a separate beaker, 25 ml of 0.1M acetate buffer is prepared and pH adjusted to 4.5. To this buffer solution having initial pH of 4.5, a sample of 0.5 ml of pre-treated HAP slurry is added and dissolution profile of the pretreated HAP powder is monitored via changes in pH of the acetate buffer solution. The pH change is measured and recorded using a Brinkman Titrino titrator device for 30 minutes. With HAP dissolution, pH increases and the pH change is compared to that of a plain water treated HAP as control and is used to calculate percent inhibition of HAP mineral loss.

[4] abbreviates: Table 1, change from baseline after treatment, 1 h saliva soak, concentrations as in label.
[5] abbreviates: Table 1, vs water treated HAP, concentrations as in label.
[6] abbreviates: Table 3, with or without water soluble hydrophilic compound.

The source of these data is US20110089073A1, “Methods And Compositions For Hydrophobic Modification Of Oral Cavity Surfaces” (The Procter & Gamble Company, priority 2009, published 2011).

On to `CCCCCCCCCCCCOS(=O)(=O)[O-].[Na+]` [1% SLS, sodium lauryl sulfate, reference compound], for which, in assay [1] (setting [4]), the “Δ Water Contact Angle” value is listed as 0.23.

Take `CCCCCCCCCCCCOP(=O)([O-])[O-].[Na+].[Na+]` [Sodium dodecyl phosphate]: in assay [2], the “Tooth mineral surface loss from acid exposure” value (shortened to “Tooth mineral surface loss”) was “significantly less tooth mineral surface loss”.

“Potassium Laureth Phosphate [1% Potassium Laureth Phosphate]”: the “Δ Water Contact Angle” value in assay [1] (setting [4]) is 45.43. The “% Inhibition of HAP Surface Loss” value in assay [3] (setting [5]) stood at 89.7%.

For the compound “Potassium Laureth-3 Phosphate [1% Potassium Laureth-3 Phosphate]”, the “Δ Water Contact Angle” value in assay [1] (setting [4]) is 23.2. Further, the “% Inhibition of HAP Surface Loss” value in assay [3] (setting [5]) stood at 94.8%.

Consider “Sodium Dodeceth-1 Phosphate [1% Sodium Dodeceth-1 Phosphate]”, for which the “Δ Water Contact Angle” value in assay [1] (setting [4]) worked out at 32.13; in assay [1] (Table 2, concentration 0.25%) it was 19.07; in assay [1] (Table 2, concentration 0.5%) it was 26.57; in assay [1] (Table 2, concentration 1.0%), 43.77; in assay [1] (Table 2, concentration 2.0%) it was 61.40; in assay [1] (setting [6]), 32.13. Further, the “% Inhibition of HAP Surface Loss” value stood at 94.5% in assay [3] (setting [5]); 58.56% in assay [3] (Table 2, concentration 0.25%); 75.69% in assay [3] (Table 2, concentration 0.5%); 92.03% in assay [3] (Table 2, concentration 1.0%); 92.83% in assay [3] (Table 2, concentration 2.0%); 94.49% in assay [3] (setting [6]). Moreover, the “Tooth mineral surface loss” value in assay [2] was “significantly less tooth mineral surface loss”.

Regarding “Sodium Dodeceth-9 Phosphate [1% Sodium Dodeceth-9 Phosphate]”, the “Δ Water Contact Angle” value in assay [1] (setting [4]) is 16.43. Further, the “% Inhibition of HAP Surface Loss” value in assay [3] (setting [5]) came out at 45.24%. The “Tooth mineral surface loss” value in assay [2] is on record as “significantly less tooth mineral surface loss”.
